Test results from patent US12581252B2, “Substituted pyrrolo[3,4-b]pyridines as PI3K-α inhibitors” (Relay Therapeutics, Inc., priority 2020, dated 2026).
pIC50: −log10 of the molar value.

Biological target: H1047R PIK3CA enzyme (Homo sapiens, UniProt P42336, H1047R)
Assay: ADP-Glo Biochemical PIK3CA Kinase Assay

Chain of H1047R PIK3CA enzyme (P42336 whole entry H1047R): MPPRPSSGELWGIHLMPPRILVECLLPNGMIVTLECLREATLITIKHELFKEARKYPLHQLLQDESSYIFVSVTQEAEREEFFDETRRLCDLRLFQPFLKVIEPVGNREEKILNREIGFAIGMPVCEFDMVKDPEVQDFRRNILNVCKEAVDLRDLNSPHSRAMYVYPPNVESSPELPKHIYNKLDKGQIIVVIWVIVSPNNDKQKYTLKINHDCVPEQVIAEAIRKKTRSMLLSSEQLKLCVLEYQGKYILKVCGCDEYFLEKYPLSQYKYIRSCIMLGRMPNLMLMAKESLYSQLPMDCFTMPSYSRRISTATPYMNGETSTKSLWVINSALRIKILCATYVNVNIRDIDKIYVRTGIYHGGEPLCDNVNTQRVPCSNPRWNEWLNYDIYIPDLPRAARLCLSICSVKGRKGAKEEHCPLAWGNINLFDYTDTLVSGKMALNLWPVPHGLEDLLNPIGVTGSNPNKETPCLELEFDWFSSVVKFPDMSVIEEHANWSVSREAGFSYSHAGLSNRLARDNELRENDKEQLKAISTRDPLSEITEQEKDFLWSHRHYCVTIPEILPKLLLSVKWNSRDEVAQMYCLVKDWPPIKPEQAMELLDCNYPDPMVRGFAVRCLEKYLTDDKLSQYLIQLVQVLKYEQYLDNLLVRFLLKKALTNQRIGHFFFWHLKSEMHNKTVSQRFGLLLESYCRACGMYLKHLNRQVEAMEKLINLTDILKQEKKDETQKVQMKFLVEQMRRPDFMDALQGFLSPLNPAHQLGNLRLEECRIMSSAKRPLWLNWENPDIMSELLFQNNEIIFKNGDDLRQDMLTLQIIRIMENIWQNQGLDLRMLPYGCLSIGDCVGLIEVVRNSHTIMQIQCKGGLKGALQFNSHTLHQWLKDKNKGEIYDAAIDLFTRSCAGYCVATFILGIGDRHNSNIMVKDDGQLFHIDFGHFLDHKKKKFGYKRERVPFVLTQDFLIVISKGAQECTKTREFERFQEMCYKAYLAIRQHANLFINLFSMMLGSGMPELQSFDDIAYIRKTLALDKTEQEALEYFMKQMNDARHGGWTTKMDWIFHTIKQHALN
Chain of H1047R PIK3CA enzyme (P27986 whole entry partner): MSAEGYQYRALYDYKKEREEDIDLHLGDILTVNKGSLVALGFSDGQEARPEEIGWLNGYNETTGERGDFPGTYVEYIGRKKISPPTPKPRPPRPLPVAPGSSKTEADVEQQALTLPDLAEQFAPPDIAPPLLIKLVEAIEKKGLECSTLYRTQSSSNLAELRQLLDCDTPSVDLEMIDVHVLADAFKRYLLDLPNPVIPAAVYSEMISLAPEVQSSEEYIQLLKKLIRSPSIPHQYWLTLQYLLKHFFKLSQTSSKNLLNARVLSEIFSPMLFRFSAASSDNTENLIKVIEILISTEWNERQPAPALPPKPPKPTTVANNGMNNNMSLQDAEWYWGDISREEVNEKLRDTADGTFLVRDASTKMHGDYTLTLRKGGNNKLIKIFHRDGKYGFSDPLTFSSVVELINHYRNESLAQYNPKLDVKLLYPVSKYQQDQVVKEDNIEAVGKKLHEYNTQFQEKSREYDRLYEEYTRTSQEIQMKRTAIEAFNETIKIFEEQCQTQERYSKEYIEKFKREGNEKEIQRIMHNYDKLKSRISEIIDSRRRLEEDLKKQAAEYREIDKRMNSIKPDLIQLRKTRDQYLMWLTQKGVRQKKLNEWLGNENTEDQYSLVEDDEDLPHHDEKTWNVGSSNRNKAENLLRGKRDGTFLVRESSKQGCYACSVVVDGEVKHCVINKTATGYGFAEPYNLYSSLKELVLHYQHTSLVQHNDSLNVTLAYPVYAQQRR

pIC50 | SMILES
6.30 to 7.00 | Cc1ccccc1C1NC(=O)c2c(N)ncc(NC(=O)c3cc(F)cc(C(F)(F)F)c3)c21 (stereo not drawn) [Compound I-262, N-(4-Amino-3-oxo-1-(o-tolyl)-2,3-dihydro-1H-pyrrolo[3,4-c]pyridin-7-yl)-3-fluoro-5-(trifluoromethyl)benzamide]
5.00 to 6.00 | COCc1cc(NC(=O)N2C[C@](O)(C(F)(F)F)c3cc(F)ccc32)c2c(c1)C(=O)N[C@@H]2c1cc(F)ccc1Cl (single isomer, unassigned) [Compound I-2542]
5.00 to 6.00 | O=C1NC(c2cc(F)ccc2Cl)c2c(NC(=O)c3cc(C(F)(F)F)cc(F)c3C3(O)COC3)cccc21 (stereo not drawn) [Compound I-1114]
6.00 to 6.30 | O=C(Nc1cc(Br)cc2c1C(c1cc(F)ccc1Cl)NC2=O)c1cc(F)cc2c1NCCC2 (stereo not drawn) [Compound I-1385]
4.00 to 5.00 | O=C(Nc1cccc2c1C(C1CCCNC1)NC2=O)c1cc(F)cc(C(F)(F)F)c1 (stereo not drawn) [Compound I-1747]
≥ 7.00 | O=C(Nc1cc(C[n+]2ccccc2)cc2c1[C@H](c1cc(F)ccc1Cl)NC2=O)c1cc(F)cc(C(F)(F)F)c1 (racemic) [Compound I-1321]
4.00 to 5.00 | Cc1ccccc1C1NC(=O)c2cccc(NC(=O)c3nnc4ccccn34)c21 (stereo not drawn) [Compound I-328, N-(1-oxo-3-(o-tolyl)isoindolin-4-yl)-[1,2,4]triazolo[4,3-a]pyridine-3-carboxamide]
5.00 to 6.00 | O=C(Nc1cc(Br)cc2c1[C@@H](c1ccccc1C(F)F)NC2=O)c1cc(F)cc(C(F)(F)F)c1 [Compound I-790]
5.00 to 6.00 | O=C(Nc1cc(-c2cn(C(F)F)cn2)cc2c1[C@@H](c1cc(F)ccc1Cl)NC2=O)c1cc(F)cc(C(F)(F)F)c1 [Compound I-1918]
4.00 to 5.00 | COc1cc(F)c(F)c(C(=O)Nc2cccc3c2C(c2ccccc2C)NC3=O)c1 (stereo not drawn) [Compound I-341]
6.00 to 6.30 | O=C(Nc1cc(-c2ccc3nccn3c2)cc2c1[C@@H](c1cc(F)ccc1Cl)NC2=O)c1cc(F)cc(C(F)(F)F)c1 [Compound I-826]
≥ 7.00 | O=C(Nc1cc(NC(=O)C2(O)CC2)cc2c1C(c1cc(F)ccc1Cl)NC2=O)c1cc(F)cc(C(F)(F)F)c1 (stereo not drawn) [Compound I-592]
5.00 to 6.00 | Cc1ccccc1C1NC(=O)c2ccnc(NC(=O)c3nsc4ccccc34)c21 (stereo not drawn) [Compound I-176, N-[3-(2-Methylphenyl)-1-oxo-1H,2H,3H-pyrrolo[3,4-c]pyridin-4-yl]-1,2-benzothiazole-3-carboxamide]
4.00 to 5.00 | O=C1NC(c2cc(F)ccc2Cl)c2c(Nc3ccn(CCO)n3)cc(-c3ccc4ncnn4c3)cc21 (stereo not drawn) [Compound I-1994]
4.00 to 5.00 | O=C1N[C@@H](c2cc(F)ccc2Cl)c2c(NC(=O)N3C[C@](O)(C(F)(F)F)c4cc(F)ccc43)cc(N3CCOC3=O)cc21 (single isomer, unassigned) [Compound I-2676]
4.00 to 5.00 | O=C1N[C@H](c2cc(F)ccc2Cl)c2c(NC(=O)[C@H]3C[C@H]3C(F)(F)F)cc(Br)cc21 (racemic) [Compound I-1854]
4.00 to 5.00 | Cc1ccc(C(=O)Nc2cc(Br)cc3c2C(c2cc(F)ccc2Cl)NC3=O)cc1 (stereo not drawn) [Compound I-519]
≥ 7.00 | N#Cc1cnc2ncc(-c3cc(NC(=O)c4cc(F)cc(C(F)(F)F)c4)c4c(c3)C(=O)NC4c3cc(F)ccc3Cl)cn12 (stereo not drawn) [Compound I-1796]
≥ 7.00 | O=C(Nc1cc(N2CC3(COC3)C2)cc2c1C(c1cc(F)ccc1Cl)NC2=O)c1cc(F)cc(C(F)(F)F)c1 (stereo not drawn) [Compound I-729]
5.00 to 6.00 | COc1ccc2scc(C(=O)Nc3cccc4c3C(c3ccccc3C)NC4=O)c2c1 (stereo not drawn) [Compound I-42]
5.00 to 6.00 | O=C(Nc1cc(-c2ccc3ncccc3c2)cc2c1[C@@H](c1cc(F)ccc1Cl)NC2=O)c1cc(F)cc(C(F)(F)F)c1 [Compound I-893]

pIC50 | SMILES
≥ 7.00 | CC1(Cc2cc(NC(=O)c3cc(F)cc(C(F)(F)F)c3)c3c(c2)C(=O)N[C@H]3c2cc(F)ccc2Cl)COC1 [Compound I-818]
4.00 to 5.00 | CC(=O)N[C@H]1CC[C@H](C(=O)Nc2cc(-c3ccc4ncnn4c3)cc3c2C(c2cc(F)ccc2Cl)NC3=O)CC1 (mixture of isomers) [Compound I-1850]
≥ 7.00 | O=C(Nc1cc(-c2ccc3nccn3c2)cc2c1C(c1cc(F)ccc1Cl)NC2=O)c1cc(F)cc(C(F)(F)F)c1 (stereo not drawn) [Compound I-736]
6.30 to 7.00 | Cn1cc(-c2cc(NC(=O)c3nsc4ccccc34)c3c(n2)C(=O)NC3c2ccccc2Cl)cn1 (stereo not drawn) [Compound I-108]
5.00 to 6.00 | Nc1cc(C(F)(F)F)cc(C(=O)Nc2cccc3c2C(c2cc(F)ccc2Cl)NC3=O)n1 (stereo not drawn) [Compound I-726]
≥ 7.00 | Cn1nccc1C(O)c1cc(NC(=O)c2cc(F)cc(C(F)(F)F)c2)c2c(c1)C(=O)NC2c1cc(F)ccc1Cl (stereo not drawn) [Compound I-1389]
≥ 7.00 | N#Cc1cnccc1-c1cc(NC(=O)c2cc(F)cc(C(F)(F)F)c2)c2c(c1)C(=O)N[C@H]2c1cc(F)ccc1Cl (stereo in doubt) [Compound I-1232]
4.00 to 5.00 | O=C(Nc1cccc2c1C(C1CNC1)NC2=O)c1cc(F)cc(C(F)(F)F)c1 (stereo not drawn) [Compound I-1833]
4.00 to 5.00 | CN1CC=C(c2cc(-c3ccc4ncnn4c3)cc3c2C(c2cc(F)ccc2Cl)NC3=O)CC1 (stereo not drawn) [Compound I-2021]
4.00 to 5.00 | CN1CCC(C(=O)Nc2cc(-c3ccc4ncnn4c3)cc3c2C(c2cc(F)ccc2Cl)NC3=O)CC1 (stereo not drawn) [Compound I-1758]
≥ 7.00 | CN(C)S(=O)(=O)n1cc(-c2cc(NC(=O)c3cc(F)cc(C(F)(F)F)c3)c3c(c2)C(=O)NC3c2cc(F)ccc2Cl)cn1 (stereo not drawn) [Compound I-1592]
4.00 to 5.00 | CC(=O)N[C@@H]1CCC[C@H](C(=O)Nc2cc(-c3ccc4ncnn4c3)cc3c2C(c2cc(F)ccc2Cl)NC3=O)C1 (mixture of isomers) [Compound I-1842]
6.00 to 6.30 | COc1cc(F)cc(C(=O)Nc2cc(Br)cc3c2C(c2cc(F)ccc2Cl)NC3=O)c1 (stereo not drawn) [Compound I-800]
≥ 7.00 | CP(C)(=O)c1cc(NC(=O)c2cc(F)cc(C(F)(F)F)c2)c2c(c1)C(=O)NC2c1cc(F)ccc1Cl (stereo not drawn) [Compound I-395]
6.00 to 6.30 | COc1cc(C(=O)Nc2cccc3c2C(c2ccccc2C)NC3=O)cc(F)c1F (stereo not drawn) [Compound I-317]
4.00 to 5.00 | N#CCOc1cc(-c2ccc3ncnn3c2)cc2c1C(c1cc(F)ccc1Cl)NC2=O (stereo not drawn) [Compound I-2022]
4.00 to 5.00 | CS(=O)(=O)c1cc(F)cc(C(=O)Nc2cc(Br)cc3c2C(c2cc(F)ccc2Cl)NC3=O)c1 (stereo not drawn) [Compound I-912]
≥ 7.00 | O=C(Nc1cc(C2CCOC2)cc2c1C(c1cc(F)ccc1Cl)NC2=O)c1cc(F)cc(C(F)(F)F)c1 (racemic) [Compound I-778]
5.00 to 6.00 | O=C(Nc1ccnc2c1C(c1cccc(F)c1F)NC2=O)c1cc(F)cc(Cl)c1 (stereo not drawn) [Compound I-173]
≥ 7.00 | O=C(Nc1cc(N2CC(F)(F)C2)nc2c1[C@H](c1cc(F)ccc1Cl)NC2=O)c1cc(F)cc(C(F)(F)F)c1 [Compound I-366]
5.00 to 6.00 | O=C1NC(c2cc(F)ccc2Cl)c2c(NC(=O)N3CCCc4ccc(Cl)cc43)cc(Br)cc21 (stereo not drawn) [Compound I-992]

pIC50 | SMILES
4.00 to 5.00 | NC1CCC(C(=O)Nc2cc(-c3ccc4ncnn4c3)cc3c2C(c2cc(F)ccc2Cl)NC3=O)CC1 (stereo not drawn) [Compound I-1759]
5.00 to 6.00 | Cc1ccccc1C1NC(=O)c2cccc(NC(=O)c3nscc3Br)c21 (stereo not drawn) [Compound I-463]
4.00 to 5.00 | O=C1N[C@@H](c2cc(F)ccc2Cl)c2c(NC(=O)[C@H]3CC(C(F)(F)F)C[C@@H](O)C3)cc(Br)cc21 (single isomer, unassigned) [Compound I-2275]
≥ 7.00 | O=C(Nc1cc(-c2ccn3cncc3c2)cc2c1C(c1cc(F)ccc1Cl)NC2=O)c1cc(F)cc(C(F)(F)F)c1 (stereo not drawn) [Compound I-1503]
6.30 to 7.00 | CS(C)(=O)=Nc1cc(NC(=O)c2cc(F)cc(C(F)(F)F)c2)c2c(c1)C(=O)NC2c1cc(F)ccc1Cl (stereo not drawn) [Compound I-1254]
≥ 7.00 | O=C(Nc1cc(CN2CCC(F)(F)C2)cc2c1C(c1cc(F)ccc1Cl)NC2=O)c1cc(F)cc(C(F)(F)F)c1 (stereo not drawn) [Compound I-353]
4.00 to 5.00 | CN1CCC=C(c2cc(-c3ccc4ncnn4c3)cc3c2C(c2cc(F)ccc2Cl)NC3=O)C1 (stereo not drawn) [Compound I-2020]
4.00 to 5.00 | Cc1ccccc1C1NC(=O)c2cccc(NC(=O)c3noc4c3CCCCC4)c21 (stereo not drawn) [Compound I-292]
≥ 7.00 | Cc1ccc(F)cc1C1NC(=O)c2cc(Br)cc(NC(=O)c3cc(F)cc(C(F)(F)F)c3)c21 (stereo not drawn) [Compound I-759]
≥ 7.00 | O=C(Nc1cc(Cc2ccc3c(c2)CCNC3=O)cc2c1C(c1cc(F)ccc1Cl)NC2=O)c1cc(F)cc(C(F)(F)F)c1 (stereo not drawn) [Compound I-1475]
5.00 to 6.00 | O=C1N[C@H](c2cc(F)ccc2Cl)c2c(NC(=O)N3C[C@@](O)(C(F)(F)F)c4cc(F)ccc43)ccc(Cl)c21 (single isomer, unassigned) [Compound I-2620]
5.00 to 6.00 | Cc1ncc(-c2cc(NC(=O)c3cc(F)cc(C(F)(F)F)c3)c3c(c2)C(=O)N[C@@H]3c2cc(F)ccc2Cl)cn1 [Compound I-783]
4.00 to 5.00 | CC(N1C[C@H](O)C[C@H]1C(=O)Nc1cccc2c1C(c1cc(F)ccc1Cl)NC2=O)C(F)(F)F (mixture of isomers) [Compound I-2407]
5.00 to 6.00 | O=C(Nc1cc(Br)cc2c1C(c1cc(F)ccc1Cl)NC2=O)c1ccc(OC(F)(F)F)c(F)c1 (stereo not drawn) [Compound I-1313]
4.00 to 5.00 | O=C1N[C@@H](c2cc(F)ccc2Cl)c2c(NC(=O)N3CCC[C@@](O)(C(F)(F)F)C3)cccc21 (single isomer, unassigned) [Compound I-2116]
≥ 7.00 | O=C(Nc1cc(N2CCn3cncc3C2)cc2c1C(c1cc(F)ccc1Cl)NC2=O)c1cc(F)cc(C(F)(F)F)c1 (stereo not drawn) [Compound I-1237]
4.00 to 5.00 | COc1cccc(C(=O)Nc2cc(Br)cc3c2C(c2cc(F)ccc2Cl)NC3=O)c1 (stereo not drawn) [Compound I-469]
4.00 to 5.00 | NC1(C(=O)Nc2cc(-c3ccc4ncnn4c3)cc3c2C(c2cc(F)ccc2Cl)NC3=O)CCCC1 (stereo not drawn) [Compound I-1812]
≥ 7.00 | O=C(Nc1cc(CC2(CO)COC2)cc2c1C(c1cc(F)ccc1Cl)NC2=O)c1cc(F)cc(C(F)(F)F)c1 (stereo not drawn) [Compound I-1339]
4.00 to 5.00 | O=C1NC(c2cc(F)ccc2Cl)c2c(Nc3ncnc4ccccc34)cc(Br)cc21 (stereo not drawn) [Compound I-864]
4.00 to 5.00 | O=C1N[C@@H](c2cc(F)ccc2Cl)c2c(NC(=O)N3C[C@H](CO)[C@@H](C(F)(F)F)C3)cccc21 (single isomer, unassigned) [Compound I-2279]
